What was measured:
blaADC-7 = assay: MIC of antibiotics in combination with 10 μg/mL of ceftolozane-like BATSIs; format: cell-based; details: CAZ alone
M9 clinical = assay: as above; format: cell-based; details: CAZ alone
blaCMY-2 = assay: as above; format: cell-based; details: CAZ alone
18SH = assay: as above; format: cell-based; details: CAZ alone
blaPDC-3E221K = assay: as above; format: cell-based; details: CAZ alone
A. baumannii 0057 = assay: MIC with cefepime, agar microdilution, CLSI; format: cell-based; details: cefepime alone; ADC-7
Method: (§1) Minimum inhibitory concentration (MIC) of MB076 and derivatives (PCF_038-043) in combination with cefepime.
(§2) MICs were determined by the Agar microdilution method, following CLSI guidelines. Compounds were tested at fixed concentration of 4 ug/ml in combination with cefepime.

E. coli 29838 = assay: MIC with cefepime, agar microdilution, CLSI; format: cell-based; details: cefepime alone; CTX-M-14, TEM-1
Method: as §1, §2

E. coli ATCC BAA202 = assay: MIC with cefepime, agar microdilution, CLSI; format: cell-based; details: cefepime alone; SHV-1
Method: as §1, §2

[1] = test system: E. coli DH10B pBC-SK KPC-2; assay: MIC with cefepime, agar microdilution, CLSI; format: cell-based; details: cefepime alone
Method: as §1, §2

E. coli DH10B pBC-SK P99 = assay: MIC with cefepime, agar microdilution, CLSI; format: cell-based; details: cefepime alone
Method: as §1, §2

[2] = test system: E. coli DH10B pBC-SK PDC-3; assay: MIC with cefepime, agar microdilution, CLSI; format: cell-based; details: cefepime alone
Method: as §1, §2

[3] = test system: E. coli DH10B pBC-SK SHV-2; assay: MIC with cefepime, agar microdilution, CLSI; format: cell-based; details: cefepime alone
Method: as §1, §2

[4] = test system: E. coli DH10B pBC-SK control; assay: MIC with cefepime, agar microdilution, CLSI; format: cell-based; details: cefepime alone; B-lactamases none
Method: as §1, §2

E. coli pLTCF1 = assay: MIC with cefepime, agar microdilution, CLSI; format: cell-based; details: cefepime alone; CTX-M group 9
Method: as §1, §2

E. coli pLTCF2 = assay: MIC with cefepime, agar microdilution, CLSI; format: cell-based; details: cefepime alone
Method: as §1, §2

K. pneumoniae 253 = assay: MIC with cefepime, agar microdilution, CLSI; format: cell-based; details: cefepime alone; TEM-12, SHV-5, CTX-M
Method: as §1, §2

K. pneumoniae 255 = assay: MIC with cefepime, agar microdilution, CLSI; format: cell-based; details: cefepime alone; TEM-1, SHV-2
Method: as §1, §2

K. pneumoniae 266 = assay: MIC with cefepime, agar microdilution, CLSI; format: cell-based; details: cefepime alone; SHV-5
Method: as §1, §2

K. pneumoniae 34700 = assay: MIC with cefepime, agar microdilution, CLSI; format: cell-based; details: cefepime alone; CTX-M-15, SHV, TEM
Method: as §1, §2

K. pneumoniae 427 = assay: MIC with cefepime, agar microdilution, CLSI; format: cell-based; details: cefepime alone; TEM-1, SHV-1, CTX-M-3
Method: as §1, §2

K. pneumoniae ST17 = assay: MIC with cefepime, agar microdilution, CLSI; format: cell-based; details: cefepime alone; KPC-2, TEM, SHV, CTX-M-Group 1
Method: as §1, §2

K. pneumoniae ST258 B5 = assay: MIC with cefepime, agar microdilution, CLSI; format: cell-based; details: cefepime alone; KPC-2
Method: as §1, §2

K. pneumoniae ST258 C3 = assay: MIC with cefepime, agar microdilution, CLSI; format: cell-based; details: cefepime alone; KPC-3
Method: as §1, §2

[5] = test system: K. pneumoniae original KPC-2; assay: MIC with cefepime, agar microdilution, CLSI; format: cell-based; details: cefepime alone
Method: as §1, §2

[6] = test system: Klebsiella pneumonia/BAA-1705; assay: MIC of MB076 alone or in combination with cefepime or meropenem; format: cell-based; details: Klebsiella pneumoniae, BAA1705; single agent; read-out: MIC
Method: as §2

[7] = test system: Klebsiella pneumonia/FDA-CDC AR-BANK#0097; assay: as above; format: cell-based; details: Klebsiella pneumoniae; single agent; read-out: MIC
Method: as §2

[8] = test system: Klebsiella pneumonia/FDA-CDC AR-BANK#0098; assay: as above; format: cell-based; details: Klebsiella pneumoniae; single agent; read-out: MIC
Method: as §2

K. pneum blaKPC-2 = assay: MIC of antibiotics in combination with 10 μg/mL of ceftolozane-like BATSIs; format: cell-based; details: FEP alone
K. pneum KPC-Kpn = assay: as above; format: cell-based; details: FEP alone
blaCTXM-9 = assay: as above; format: cell-based; details: FEP alone
K. pneumoniae Kp1 = assay: Survival of mice infected IV with K. pneumoniae Kp1; format: in vivo; details: C57BL/6 mice infected IV with KP1; treated IP at infection, 18 h and 24 h; cefepime 100 mg/kg/dose; cefepime+MB076 at 1:4 ratio
Method: FIG. 1 illustrates the survival curve of mice infected IV with K. pneumoniae Kp1 and treated with cefepime alone or in combination with MB076. Five male C57BL/6 mice per treatment were infected IV via the tail-vein with 2.1×10^8 CFU/mouse and treated with placebo control (phosphate-buffered saline), cefepime (100 mg/kg/dose), or cefepime and MB076.
To determine […] activity of MB076 we used cefepime with or without MB076 in mice infected IV with the pan drug resistant strain KP1 and treated IP at the time of infection with placebo control, cefepime, or cefepime+MB076 (at 1:4 ratio). Doses were repeated the following morning and afternoon (18 h and 24 h after infection, respectively). All mice treated with placebo or cefepime alone died, whereas all mice treated with either ratio of MB076 plus cefepime survived.

NDM-1 pHSG298 = assay: MIC of antibiotics in combination with 10 μg/mL of ceftolozane-like BATSIs; format: cell-based; details: IMI alone
HUMC1 Abspp = assay: as above; format: cell-based; details: SULB alone

CC(C)(O/N=C(\C(=O)N[C@@H]1C(=O)N2C(C(=O)[O-])=C(C[n+]3ccccc3)CS[C@H]12)c1csc(N)n1)C(=O)O [CAZ, ceftazidime, reference compound]
MIC of antibiotic (blaADC-7): CAZ 16 mg/mL
MIC of antibiotic (M9 clinical): CAZ >32 mg/mL
MIC of antibiotic (blaCMY-2): CAZ 128 mg/mL
MIC of antibiotic (18SH): CAZ 64 mg/mL
MIC of antibiotic (blaPDC-3E221K): CAZ 32 mg/mL

CO/N=C(\C(=O)N[C@@H]1C(=O)N2C(C(=O)[O-])=C(C[N+]3(C)CCCC3)CS[C@H]12)c1csc(N)n1 [Cefepime, cefepime, reference compound]
MIC of cefepime (A. baumannii 0057): 64 µg/mL
MIC of cefepime (E. coli 29838): 4 µg/mL
MIC of cefepime (E. coli ATCC BAA202): 1 µg/mL
MIC of cefepime [1]: 8 µg/mL
MIC of cefepime (E. coli DH10B pBC-SK P99): < 0.25 µg/mL
MIC of cefepime [2]: < 0.25 µg/mL
MIC of cefepime [3]: 4 µg/mL
MIC of cefepime [4]: < 0.25 µg/mL
MIC of cefepime (E. coli pLTCF1): 8 µg/mL
MIC of cefepime (E. coli pLTCF2): 1 µg/mL
MIC of cefepime (K. pneumoniae 253): 32 µg/mL
MIC of cefepime (K. pneumoniae 255): 4 µg/mL
MIC of cefepime (K. pneumoniae 266): 2 µg/mL
MIC of cefepime (K. pneumoniae 34700): 32 µg/mL
MIC of cefepime (K. pneumoniae 427): 8 µg/mL
MIC of cefepime (K. pneumoniae ST17): 64 µg/mL
MIC of cefepime (K. pneumoniae ST258 B5): 32 µg/mL
MIC of cefepime (K. pneumoniae ST258 C3): 8 µg/mL
MIC of cefepime [5]: 8 µg/mL
MIC [6]: > 32 µg/mL
MIC [7]: > 32 µg/mL
MIC [8]: 32 µg/mL
MIC of antibiotic (K. pneum blaKPC-2): 16/32
MIC of antibiotic (K. pneum KPC-Kpn): FEP 32 mg/mL
MIC of antibiotic (blaCTXM-9): FEP 8 mg/mL
Survival of infected mice (K. pneumoniae Kp1): died

C[C@@H](O)[C@H]1C(=O)N2C(C(=O)O)=C(SCCN=CN)C[C@H]12 [IMI]
MIC of antibiotic (NDM-1 pHSG298): IMI 8 mg/mL

CC1(C)[C@H](C(=O)O)N2C(=O)C[C@H]2S1(=O)=O [SULB, sulbactam]
MIC of antibiotic (HUMC1 Abspp): SULB 4 mg/mL
